Assay [1] concerns the target Lysine-specific histone demethylase 1A (Homo sapiens, UniProt O60341). The experiment in a line: LSD1 in vitro activity assay.
Assay [2] addresses T1, Amine oxidase [flavin-containing] A (Homo sapiens, UniProt P21397).
T1 sequence (P21397 whole entry): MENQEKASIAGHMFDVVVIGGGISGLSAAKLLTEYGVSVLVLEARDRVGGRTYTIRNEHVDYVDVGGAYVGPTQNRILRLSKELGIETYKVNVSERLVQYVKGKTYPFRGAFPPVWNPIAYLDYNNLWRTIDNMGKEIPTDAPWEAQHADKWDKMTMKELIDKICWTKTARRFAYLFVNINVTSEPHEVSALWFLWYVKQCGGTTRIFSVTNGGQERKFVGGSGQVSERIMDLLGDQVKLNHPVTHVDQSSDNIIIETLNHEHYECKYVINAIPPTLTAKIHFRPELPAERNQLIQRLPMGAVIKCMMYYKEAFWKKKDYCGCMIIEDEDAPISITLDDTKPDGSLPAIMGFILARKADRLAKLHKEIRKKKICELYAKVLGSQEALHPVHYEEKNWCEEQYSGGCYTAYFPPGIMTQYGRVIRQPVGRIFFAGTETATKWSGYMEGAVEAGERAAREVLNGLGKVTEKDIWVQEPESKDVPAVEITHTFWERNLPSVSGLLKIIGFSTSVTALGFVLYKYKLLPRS
Put plainly: MAOA and MAOB In Vitro Activity Assay.

The target in assay [3] is T2, Amine oxidase [flavin-containing] B (Homo sapiens, UniProt P27338).
T2 sequence (P27338 whole entry): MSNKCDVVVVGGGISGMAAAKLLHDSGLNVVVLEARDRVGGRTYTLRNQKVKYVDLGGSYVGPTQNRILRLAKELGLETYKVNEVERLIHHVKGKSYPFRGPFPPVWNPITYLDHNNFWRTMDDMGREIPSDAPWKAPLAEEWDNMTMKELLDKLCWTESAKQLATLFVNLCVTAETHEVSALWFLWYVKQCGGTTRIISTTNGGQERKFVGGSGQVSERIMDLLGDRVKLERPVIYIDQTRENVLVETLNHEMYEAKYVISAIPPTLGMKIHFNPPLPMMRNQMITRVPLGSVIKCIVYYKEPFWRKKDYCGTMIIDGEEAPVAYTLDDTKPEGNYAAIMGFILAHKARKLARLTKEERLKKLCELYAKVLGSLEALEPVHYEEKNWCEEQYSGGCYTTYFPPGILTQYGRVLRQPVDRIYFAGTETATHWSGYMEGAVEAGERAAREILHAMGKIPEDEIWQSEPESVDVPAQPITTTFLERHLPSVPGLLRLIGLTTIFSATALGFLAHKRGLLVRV
The experiment in a line: MAOA and MAOB In Vitro Activity Assay.

The term IC50 denotes the concentration that inhibits the measured activity by half. Read a high IC50 as a need for much substance.

For the compound `O=S(=O)(c1ccccc1)N1CCc2cc(C3CC3NCc3c[nH]c4ccccc34)ccc21` (trans isomer) [US11873292, Compound A8], the IC50 in assay [1] was 85.1 nM; in assay [2], 81.7 µM; in assay [3] it was above 100 µM.
